pIC50: −log10 of the molar value. Like-named read-outs stand apart in the source and are kept apart here.
Key:
HDAC3 = biological target: T1, HDAC3 (Homo sapiens, UniProt O15379); assay: HDAC enzyme assay, HDAC3 (fluorescence, tripeptide substrate/trypsin); format: biochemical; conditions: 0.08 ng/ml enzyme, 17 μM substrate, 10 min preincubation
T1 construct: purchased BPS Biosciences
Protocol: (§1) Compounds for testing were diluted in […] to 50 fold the final concentration and a ten-point three-fold dilution series was made. The compounds were diluted in assay buffer (50 mM HEPES, pH 7.4, 100 mM KCl, 0.001% Tween-20, 0.05% BSA, 20 μM TCEP) to 6-fold their final concentration. The HDAC enzymes (purchased from BPS Biosciences) were diluted to 1.5-fold their final concentration in assay buffer. The tripeptide substrate and trypsin at 0.05 μM final concentration were diluted in assay buffer at 6-fold their final concentration. The final enzyme concentrations used in these assays were 3.3 ng/ml (HDAC1), 0.2 ng/ml (HDAC2) and 0.08 ng/ml (HDAC3). The final substrate concentrations used were 16 μM (HDAC1), 10 μM (HDAC2) and 17 μM (HDAC3).
(§2) Five μl of compounds and 20 μl of enzyme were added to wells of a black, opaque 384 well plate in duplicate. Enzyme and compound were incubated together at room temperature for 10 minutes. Five μl of substrate was added to each well, the plate was shaken for 60 seconds and placed into a Victor 2 microtiter plate reader. The development of fluorescence was monitored for 60 min and the linear rate of the reaction was calculated. The IC50 was determined using Graph Pad Prism by a four parameter curve fit.

HDAC1 = biological target: T2, HDAC1 (Homo sapiens, UniProt Q13547); assay: HDAC enzyme assay, HDAC1 (fluorescence, tripeptide substrate/trypsin); format: biochemical; conditions: 3.3 ng/ml enzyme, 16 μM substrate, 10 min preincubation
T2 construct: purchased BPS Biosciences
Protocol: as §1, §2

[1] = Pharmacokinetics in male SD rats (cassette dosing, IV and PO), plasma level by LC/MS/MS; format: in vivo; conditions: male SD rat; for bioavailability: dose adjusted PO AUC (5 mg/kg) to IV AUC (1 mg/kg), read-out: F % (oral bioavailability); for CL renal: read-out: IV Clr.
Protocol: Male SD rats were fasted overnight. Compounds of the invention were dissolved in dimethyl acetamide at 10 times the final concentration, then Solutol HS 15 (BASF) was added to a final concentration of 10%. Finally, 80% saline was added and vortexed to achieve a clear solution. For the IV dosing three animals were injected via the foot dorsal vein with 1 mg/kg compound. For the PO dosing 5 mg/kg of compound was delivered by oral gavage. Blood was collected via the tail vein into K2EDTA tubes at 5 minutes, 15 minutes, 30 minutes, 1 hour, 2 hours, 4 hours, 8 hours and 24 hours after dosing. The blood was centrifuged at 2000 g for 5 minutes at 4° C. to obtain plasma. The plasma was extracted with acetonitrile and the level of compound was analyzed by LC/MS/MS. The level of compound in plasma was calculated from a standard curve in rat plasma. The IV clearance (L/h/kg) and area under the curve (h*ng/mL) were calculated using WinNonLin software. The dose adjusted area under the curve for the IV and oral dosing were used to calculate the oral bioavailability.
Pharmacokinetic properties were assessed in a rat cassette dosing experiment. The IV clearance (IV Clr.) is in units of L/hr/kg. The oral maximum plasma concentration (PO Cmax) is in units of ng/ml. The oral plasma half-life (PO T½) is in units of hours. The oral area under the curve (PO AUC) is in units of hours*ng/ml. The fraction absorbed by the oral route (F %) is a percentage of the oral area under the curve to the IV area under the curve, dose adjusted.

HDAC2 = biological target: T3, HDAC2 (Homo sapiens, UniProt Q92769); assay: HDAC enzyme assay, HDAC2 (fluorescence, tripeptide substrate/trypsin); format: biochemical; conditions: 0.2 ng/ml enzyme, 10 μM substrate, 10 min preincubation
T3 construct: purchased BPS Biosciences
Protocol: as §1, §2

[2] = PO 5 mg/kg oral gavage, read-out: PO AUC
[3] = PO 5 mg/kg oral gavage, read-out: PO t1/2

T2 sequence (Q13547 whole entry): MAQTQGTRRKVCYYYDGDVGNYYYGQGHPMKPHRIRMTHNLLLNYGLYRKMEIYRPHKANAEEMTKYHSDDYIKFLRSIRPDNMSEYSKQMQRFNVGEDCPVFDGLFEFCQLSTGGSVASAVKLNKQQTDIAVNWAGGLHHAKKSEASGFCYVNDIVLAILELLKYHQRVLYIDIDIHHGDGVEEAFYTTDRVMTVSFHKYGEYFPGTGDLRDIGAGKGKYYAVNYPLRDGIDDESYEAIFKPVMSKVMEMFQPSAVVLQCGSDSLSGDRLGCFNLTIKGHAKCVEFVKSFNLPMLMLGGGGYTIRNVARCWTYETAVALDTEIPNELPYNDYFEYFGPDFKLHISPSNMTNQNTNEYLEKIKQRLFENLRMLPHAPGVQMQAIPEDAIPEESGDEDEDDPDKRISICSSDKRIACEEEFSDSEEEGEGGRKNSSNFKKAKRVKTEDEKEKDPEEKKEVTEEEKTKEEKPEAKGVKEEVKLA
T1 sequence (O15379 whole entry): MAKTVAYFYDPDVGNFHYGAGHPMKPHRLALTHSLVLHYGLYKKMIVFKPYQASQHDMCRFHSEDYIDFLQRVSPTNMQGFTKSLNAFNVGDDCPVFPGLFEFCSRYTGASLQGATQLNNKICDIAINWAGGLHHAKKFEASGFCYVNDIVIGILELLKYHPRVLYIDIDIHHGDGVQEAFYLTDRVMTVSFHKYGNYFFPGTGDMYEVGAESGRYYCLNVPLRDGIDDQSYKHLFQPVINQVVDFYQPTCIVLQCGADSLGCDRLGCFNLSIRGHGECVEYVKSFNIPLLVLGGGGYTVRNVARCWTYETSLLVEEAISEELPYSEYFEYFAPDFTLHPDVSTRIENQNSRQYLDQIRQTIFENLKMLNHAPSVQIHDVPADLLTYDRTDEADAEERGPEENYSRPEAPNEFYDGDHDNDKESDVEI
T1 sequence (Q9Y618 395-489 partner limits assumed): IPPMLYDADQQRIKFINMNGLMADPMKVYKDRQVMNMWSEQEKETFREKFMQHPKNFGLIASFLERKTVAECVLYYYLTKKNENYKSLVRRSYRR
T3 sequence (Q92769 whole entry): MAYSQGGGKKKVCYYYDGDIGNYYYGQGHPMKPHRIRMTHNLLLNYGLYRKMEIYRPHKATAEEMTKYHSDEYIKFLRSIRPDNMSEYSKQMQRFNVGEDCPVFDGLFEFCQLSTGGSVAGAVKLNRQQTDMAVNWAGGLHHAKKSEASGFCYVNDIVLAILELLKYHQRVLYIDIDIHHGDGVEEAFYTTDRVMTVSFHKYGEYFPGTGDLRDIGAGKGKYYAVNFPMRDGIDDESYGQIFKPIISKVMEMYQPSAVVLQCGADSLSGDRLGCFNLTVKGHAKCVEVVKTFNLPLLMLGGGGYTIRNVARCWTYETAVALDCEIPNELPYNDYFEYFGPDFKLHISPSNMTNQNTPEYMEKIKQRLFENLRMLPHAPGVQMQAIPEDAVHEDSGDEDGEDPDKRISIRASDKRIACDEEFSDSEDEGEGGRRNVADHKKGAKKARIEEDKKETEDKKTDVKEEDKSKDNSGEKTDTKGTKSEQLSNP

| pIC50 (HDAC3) | pIC50 (HDAC1) | AUC ([1]; IV 1 mg/kg, read-out: IV AUC) [ng·h/mL] | Cmax ([1]; PO 5 mg/kg oral gavage) [ng/mL] | AUC [1, 2] [ng·h/mL] | bioavailability [1] [%] | pIC50 (HDAC2) | IV clearance ([1]; IV 1 mg/kg) [mL/min/kg] | half-life ([1]; IV 1 mg/kg, read-out: IV t1/2) [min] | half-life [1, 3] [min] | CL renal ([1]; IV 1 mg/kg) [mL/min/kg] | SMILES |
| --- | --- | --- | --- | --- | --- | --- | --- | --- | --- | --- | --- |
| 5.91 to 5.92 | 6.05 |  |  |  |  | 5.90 to 5.91 |  |  |  |  | Nc1ccc(-c2cccs2)cc1NC(=O)c1ccc2ncn(CCN3CCOCC3)c2c1 [Compound 022] |
| 7.05 to 7.82 | > 8.30 | 20 to 25 |  |  |  | 8.00 to 8.30 |  | 900 to 1200 |  | < 8.33 | CN(C)CCNc1ccc2cc(C(=O)Nc3cc(-c4cccs4)ccc3N)ncc2c1 [Compound 024] |
| 6.70 to 6.96 | 7.82 to 8.30 | 15 to 20 |  |  |  | 7.70 to 7.82 |  | 60 to 300 |  | < 8.33 | CN(C)CCNc1ccc2cc(C(=O)Nc3cc(-c4cccs4)ccc3N)cnc2c1 [Compound 025] |
| 7.02 to 7.07 | 7.52 to 7.60 |  |  |  |  | 7.60 to 7.70 |  |  |  |  | CNCCCOc1ccc2cc(C(=O)Nc3cc(-c4cccs4)ccc3N)cnc2c1 [Compound 026] |
| < 5.70 | < 5.70 |  |  |  |  | < 5.70 |  |  |  |  | CN1CCN(c2ccc3cc(C(=O)Nc4cc(-c5nccn5C)ccc4N)cnc3c2)CC1 [Compound 027] |
| 6.52 to 6.54 | 7.22 to 7.30 |  |  |  |  | 7.22 to 7.30 |  |  |  |  | Nc1ccc(-c2cccs2)cc1NC(=O)c1ccc2nc(N3CCNCC3)ccc2c1 [Compound 028] |
| 6.12 | 7.60 to 7.82 | 20 to 25 |  |  |  | 6.98 to 7.30 |  | 60 to 180 |  | < 1.67 | COCCNc1ccc2cc(C(=O)Nc3cc(-c4cccs4)ccc3N)cnc2c1 [Compound 029] |
| 5.91 to 5.92 | 7.26 to 7.30 | 1 to 5 |  |  |  | 6.80 to 6.81 |  | < 30 |  | < 1.67 | COCCN(C)c1ccc2cc(C(=O)Nc3cc(-c4cccs4)ccc3N)cnc2c1 [Compound 030] |
| 6.60 to 6.62 | > 8.30 | 1 to 5 |  |  |  | 7.60 to 7.82 |  | 30 to 60 |  | < 3.33 | CN(C)CCN(C)c1ccc2cc(C(=O)Nc3cc(-c4cccs4)ccc3N)cnc2c1 [Compound 031] |
| 6.52 to 6.55 | 8.00 to 8.30 | < 15 |  |  |  | 7.46 to 7.60 |  | 30 to 120 |  | < 8.33 | CN1CCN(c2ccc3cc(C(=O)Nc4cc(-c5cccs5)ccc4N)cnc3c2)CC1 [Compound 032] |

Continued, compound first:

| SMILES | pIC50 (HDAC3) | pIC50 (HDAC1) | AUC ([1]; IV 1 mg/kg, read-out: IV AUC) [ng·h/mL] | Cmax ([1]; PO 5 mg/kg oral gavage) [ng/mL] | AUC [1, 2] [ng·h/mL] | bioavailability [1] [%] | pIC50 (HDAC2) | IV clearance ([1]; IV 1 mg/kg) [mL/min/kg] | half-life ([1]; IV 1 mg/kg, read-out: IV t1/2) [min] | half-life [1, 3] [min] | CL renal ([1]; IV 1 mg/kg) [mL/min/kg] |
| --- | --- | --- | --- | --- | --- | --- | --- | --- | --- | --- | --- |
| CN1C(=O)Cc2cc(C(=O)Nc3cc(-c4cccs4)ccc3N)ccc21 [Compound 001] | 6.46 to 6.47 | 8.00 to 8.30 | 40000 to 40200 | 6950 to 7000 | 140000 | 65 to 75 | 7.82 to 8.00 |  |  |  |  |
| Nc1ccc(-c2ccccc2)cc1NC(=O)c1ccc2c(c1)CC(=O)N2CC1CC1 [Compound 002] | 6.03 | 7.60 to 7.70 | 6500 to 6600 | 2450 to 2500 | 22400 | 65 to 75 | 7.30 to 7.35 | 0.167 to 8.33 | 60 to 300 | 300 to 600 |  |
| Nc1ccc(-c2cccs2)cc1NC(=O)c1ccc2c(c1)CC(=O)N2CCN1CCOCC1 [Compound 003] | 6.23 to 6.84 | 8.00 to 9.00 | 1800 to 1900 | 950 to 1000 | 11400 to 11600 | 130 to 140 | 7.60 to 8.30 | 1.67 to 16.7 | 300 to 600 | 300 to 600 |  |
| Nc1ccc(-c2cccs2)cc1NC(=O)c1ccc2c(c1)CC(=O)N2 [Compound 004] | 6.27 to 6.28 | 8.00 to 8.30 | 10600 to 10800 | 3500 to 3550 | 61200 to 61400 | 110 to 115 | 7.52 to 7.60 | 0.167 to 8.33 | 900 to 1200 | 600 to 900 |  |
| Nc1ccc(-c2cccs2)cc1NC(=O)c1ccc2c(c1)CC(=O)N2CCN1CCCCC1 [Compound 006] | 5.94 to 5.95 | 7.82 to 8.00 |  |  |  |  | 7.12 to 7.15 |  |  |  |  |
| CN1C(=O)Cc2cc(C(=O)Nc3cc(-c4ccc(O)cc4)ccc3N)ccc21 [Compound 007] | 5.56 | 7.52 to 7.60 |  |  |  |  | 7.19 to 7.22 |  |  |  |  |
| Nc1ccc(-c2ccccc2)cc1NC(=O)c1ccc2ncn(CCN3CCOCC3)c2c1 [Compound 008] | < 5.70 | 6.19 to 6.20 |  |  |  |  | < 5.70 |  |  |  |  |
| Nc1ccc(-c2cccs2)cc1NC(=O)c1ccc2[nH]c(C3CC3)nc2c1 [Compound 009] | 6.32 to 6.33 | 7.82 to 8.00 | 10800 | 4150 to 4200 | 65200 to 65400 | 115 to 125 | 7.35 to 7.40 | 0.167 to 8.33 | 900 to 1200 | 600 to 900 |  |
| Cn1cnc2ccc(C(=O)Nc3cc(-c4cccs4)ccc3N)cc21 [Compound 010] | 6.00 to 6.01 | 6.42 to 6.43 |  |  |  |  | 6.66 to 6.68 |  |  |  |  |
| Nc1ccc(-c2cccs2)cc1NC(=O)c1ccc2c(c1)CC(=O)N2CC1CC1 [Compound 011] | 6.30 to 6.31 | 7.82 to 8.00 | 2000 to 2100 | 700 to 750 | 8000 to 8100 | 80 to 90 | 7.40 to 7.46 | 1.67 to 16.7 | 300 to 600 | 300 to 600 |  |
| CN1C(=O)Cc2cc(C(=O)Nc3cc(-c4ccccc4)ccc3N)ccc21 [Compound 012] | 6.05 to 6.06 | 7.46 to 7.60 | 29800 to 30000 | 8200 to 8250 | 9450 to 9550 | 60 to 70 | 7.52 to 7.70 | 0.167 to 8.33 | 300 to 600 | 900 to 1200 |  |
| Nc1ccc(-c2ccccc2)cc1NC(=O)c1ccc2c(c1)CC(=O)N2CCN1CCOCC1 [Compound 013] | 5.98 | 7.46 to 7.60 | 2700 to 2800 | 1900 to 1950 | 11800 | 80 to 90 | 7.10 to 7.15 | 1.67 to 16.7 | 60 to 300 | 60 to 300 |  |
| CN1C(=O)C(C)(C)c2cc(C(=O)Nc3cc(-c4cccs4)ccc3N)ccc21 [Compound 014] | 5.47 | 5.38 |  |  |  |  | 5.67 |  |  |  |  |
| CN1C(=O)Cc2cc(C(=O)Nc3cc(-c4ccco4)ccc3N)ccc21 [Compound 015] | 6.19 | 7.60 to 7.82 |  |  |  |  | 7.40 to 7.52 |  |  |  |  |
| Nc1ccc(-c2cccs2)cc1NC(=O)c1ccc2c(c1)CC(=O)N2CCCN1CCOCC1 [Compound 016] | 6.14 to 6.15 | 8.00 to 9.00 |  |  |  |  | 7.82 to 8.30 |  |  |  |  |
| Nc1ccc(-c2ccccc2)cc1NC(=O)c1ccc2c(c1)ncn2CCN1CCOCC1 [Compound 017] | 6.34 to 6.35 | 8.00 to 9.00 |  |  |  |  | 7.70 to 8.00 |  |  |  |  |
| Nc1ccc(-c2cccs2)cc1NC(=O)c1ccc2[nH]cnc2c1 [Compound 018] | 6.63 to 6.82 | 8.00 to 9.00 | 19600 to 19800 | 5550 to 5600 | 81800 to 82000 | 75 to 85 | 7.46 to 7.70 | 0.167 to 8.33 | 600 to 900 | 300 to 600 |  |
| Cn1cnc2cc(C(=O)Nc3cc(-c4cccs4)ccc3N)ccc21 [Compound 019] | 6.15 to 6.16 | 7.70 to 7.82 |  |  |  |  | 7.40 to 7.46 |  |  |  |  |
| Cc1nc2ccc(C(=O)Nc3cc(-c4cccs4)ccc3N)cc2[nH]1 [Compound 020] | 5.88 to 5.89 | 8.00 to 8.30 |  |  |  |  | 7.52 to 7.60 |  |  |  |  |
| Nc1ccc(-c2cccs2)cc1NC(=O)c1ccc2c(c1)ncn2CCN1CCOCC1 [Compound 021] | 6.36 to 6.37 | 8.00 to 8.30 | 3700 to 3800 | 5250 to 5300 | 21400 | 110 to 120 | 7.70 to 7.82 | 1.67 to 16.7 | 60 to 300 | 60 to 300 |  |

— US11858919B2, “HDAC1,2 inhibitors” (REGENACY PHARMACEUTICALS, LLC, priority 2018, dated 2024)
